Data published in patent US7479493B2, “Substituted benzyl amine compounds” (Janssen Pharmaceutica N.V., priority 2006, dated 2009).

Columns and labels:
cloned human H3 receptor = cloned human H3 receptor (Homo sapiens, UniProt Q9Y5N1); assay: H3 Receptor Binding; details: cloned human H3 receptor stably expressed in SK-N-MC cells
human SERT = target: T1, human SERT (Homo sapiens, UniProt P31645); assay: Human SERT (3H-citalopram binding, HEK293 membranes); details: HEK293 membranes expressing the human SERT, rt 1 h
T1 construct: expressed in transfected cells; host or cells: HEK293 membranes
Method: Homogenized HEK293 (Human Embryonic Kidney) membranes expressing the human SERT were incubated with ^3H-citalopram (SERT) at rt for 1 h in 50 mM Tris, 120 mM NaCl, 5 mM KCl (pH 7.4). Nonspecific binding was determined in the presence of 10 μM fluoxetine for the SERT. The membranes were washed and the radioactivity was counted as above.

Rat SERT = Rat SERT (Rattus norvegicus, UniProt P31652); assay: biochemical
Method: The supernatant was removed and re-centrifuged at 15,000 rpm for 30 min. […] Membranes were incubated with 0.6 nM [^3H]-Citalopram plus/minus test compounds for 60 min at 25° C. and harvested by rapid filtration over GF/C glass fiber filters (pretreated with 0.3% polyethylenimine) followed by four washes with ice-cold buffer. Nonspecific binding was defined in the presence of 100 μM fluoxetine.

human H3 receptor = human H3 receptor (Homo sapiens, UniProt Q9Y5N1); assay: Cyclic AMP Accumulation (reporter gene, SK-N-MC cells)
Sequence of human H3 receptor (Q9Y5N1 whole entry): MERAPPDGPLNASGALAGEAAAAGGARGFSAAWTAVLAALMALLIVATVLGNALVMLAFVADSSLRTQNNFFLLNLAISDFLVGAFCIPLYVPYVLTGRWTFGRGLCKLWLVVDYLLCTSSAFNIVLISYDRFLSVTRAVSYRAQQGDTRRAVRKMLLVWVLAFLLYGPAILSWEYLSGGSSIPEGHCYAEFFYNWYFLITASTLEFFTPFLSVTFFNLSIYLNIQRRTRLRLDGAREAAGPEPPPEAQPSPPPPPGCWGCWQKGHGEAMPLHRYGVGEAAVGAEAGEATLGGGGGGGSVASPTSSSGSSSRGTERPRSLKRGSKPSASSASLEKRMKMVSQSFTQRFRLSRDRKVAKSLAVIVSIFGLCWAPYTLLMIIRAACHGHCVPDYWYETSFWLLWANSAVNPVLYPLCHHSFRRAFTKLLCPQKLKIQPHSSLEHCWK
Method: Sublines of SK-N-MC cells were created that expressed a reporter construct and the human H3 receptor. The reporter gene (β-galactosidase) is under the control of multiple cyclic AMP responsive elements. In 96-well plates, histamine was added directly to the cell media followed 5 min later by an addition of forskolin (5 μM final concentration). When appropriate, antagonists were added 10 min prior to agonist addition. After a 6-h incubation at 37° C., the media was aspirated and the cells washed with 200 μL of phosphate-buffered saline followed by a second aspiration. […] Color was developed using 25 μL of 1 mg/mL substrate solution (chlorophenolred β-D galactopyranoside; Roche Molecular Biochemicals, Indianapolis, Ind.).

Sequence of Rat SERT (P31652 whole entry): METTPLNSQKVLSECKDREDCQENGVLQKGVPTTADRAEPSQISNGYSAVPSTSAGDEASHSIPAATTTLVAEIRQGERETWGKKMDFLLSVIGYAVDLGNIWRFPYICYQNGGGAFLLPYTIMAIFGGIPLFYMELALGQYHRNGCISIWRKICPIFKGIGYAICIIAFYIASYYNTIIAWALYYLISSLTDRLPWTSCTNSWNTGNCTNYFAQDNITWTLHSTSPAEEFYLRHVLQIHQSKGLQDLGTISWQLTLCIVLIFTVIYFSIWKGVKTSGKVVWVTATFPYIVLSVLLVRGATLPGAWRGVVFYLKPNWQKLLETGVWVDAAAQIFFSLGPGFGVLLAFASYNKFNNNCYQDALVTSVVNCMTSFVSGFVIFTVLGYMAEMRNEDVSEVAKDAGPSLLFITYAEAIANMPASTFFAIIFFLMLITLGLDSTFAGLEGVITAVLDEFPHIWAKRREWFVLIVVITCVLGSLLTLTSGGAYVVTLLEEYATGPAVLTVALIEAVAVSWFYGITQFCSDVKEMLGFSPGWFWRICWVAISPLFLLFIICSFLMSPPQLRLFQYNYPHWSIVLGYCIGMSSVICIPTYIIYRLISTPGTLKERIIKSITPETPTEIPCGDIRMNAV
Sequence of cloned human H3 receptor (Q9Y5N1 whole entry): as the sequence (Q9Y5N1 whole entry) above
T1 sequence (P31645 whole entry): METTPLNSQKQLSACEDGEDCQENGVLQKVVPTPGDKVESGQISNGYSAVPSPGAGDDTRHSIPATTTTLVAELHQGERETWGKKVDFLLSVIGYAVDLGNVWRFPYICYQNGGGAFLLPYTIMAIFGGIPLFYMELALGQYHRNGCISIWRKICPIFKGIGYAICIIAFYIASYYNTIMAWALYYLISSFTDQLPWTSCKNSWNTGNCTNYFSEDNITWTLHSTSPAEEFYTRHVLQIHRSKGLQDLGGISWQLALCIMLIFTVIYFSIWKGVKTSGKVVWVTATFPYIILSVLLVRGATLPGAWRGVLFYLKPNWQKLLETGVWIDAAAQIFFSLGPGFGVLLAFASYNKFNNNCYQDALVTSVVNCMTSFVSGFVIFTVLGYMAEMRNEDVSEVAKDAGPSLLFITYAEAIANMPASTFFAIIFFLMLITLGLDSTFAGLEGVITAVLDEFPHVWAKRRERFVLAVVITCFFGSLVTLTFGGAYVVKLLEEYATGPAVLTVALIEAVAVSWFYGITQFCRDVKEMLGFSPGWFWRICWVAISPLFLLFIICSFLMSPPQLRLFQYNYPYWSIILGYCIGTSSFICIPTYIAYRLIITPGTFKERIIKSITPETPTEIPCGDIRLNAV

SMILES | Ki (cloned human H3 receptor) [nM] | Ki (human SERT) [nM] | Ki (Rat SERT) [nM] | Kb (human H3 receptor) [nM]
CNCc1cc(C(=O)N2CCN(C(C)C)CC2)ccc1Oc1cccnc1 [Example 9, (4-Isopropyl-piperazin-1-yl)-[3-methylaminomethyl-4-(pyridin-3-yloxy)-phenyl]-methanone] | 1 | 420 | 160 | –
CNCc1cc(N2CCN(C(C)C)CCC2=O)ccc1Oc1ccc(SC)cc1 [Example 54, 1-Isopropyl-4-[3-methylaminomethyl-4-(4-methylsulfanyl-phenoxy)-phenyl]-[1,4]diazepan-5-one] | 3 | – | 0.5 | 2
CNCc1cc(N2CCN(C(C)C)CCC2=O)ccc1Oc1ccc(Cl)c(Cl)c1 [Example 73, 4-[4-(3,4-Dichloro-phenoxy)-3-methylaminomethyl-phenyl]-1-isopropyl-[1,4]diazepan-5-one] | 7.7 | 16 | 12 | 4.47
